# Entries after “also recorded” stand apart in the source; their conditions may differ.
# Key:
# Assay type in all cases: cell-based
# TRDMT1 = molecular target: T1, TRDMT1 (Homo sapiens, UniProt O14717); experiment: m^5C staining at TA-KR DNA damage sites in cells treated with YW-1842
# T1 construct: SCE WT cells were transfected with TA-KR and were cultured with 2.5 μM/L, compound YW-1842 or not for 6 hours; endogenous in cells; host or cells: SCE WT cells (U2OS-TRE type) transfected with TA-KR only
# T1 sequence (O14717 1-391): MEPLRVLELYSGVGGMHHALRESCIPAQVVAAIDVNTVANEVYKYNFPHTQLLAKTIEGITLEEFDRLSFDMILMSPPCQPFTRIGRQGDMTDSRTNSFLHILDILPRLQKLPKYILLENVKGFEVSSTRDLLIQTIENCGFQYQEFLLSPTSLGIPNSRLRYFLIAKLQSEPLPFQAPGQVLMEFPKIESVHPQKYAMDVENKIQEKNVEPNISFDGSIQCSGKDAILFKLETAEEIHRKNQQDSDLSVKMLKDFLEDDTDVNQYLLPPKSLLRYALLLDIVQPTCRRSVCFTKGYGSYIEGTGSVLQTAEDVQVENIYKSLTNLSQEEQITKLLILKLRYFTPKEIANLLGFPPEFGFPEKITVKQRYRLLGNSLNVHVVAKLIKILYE
# Experimental: (§1) FIGS. 6A-6E show TRDMT1 Inhibitors specifically sensitizes cells to DNA damage agents. (FIG. 6A) SCE WT cells were transfected with TA-KR and were cultured with 2.5 μM/L, compound YW-1842 or not for 6 hours, m^5C (n=3, 50 cells per replicated, Mean±SD) was stained and quantified. DR-GFP (FIG. 6B) or EJ5-GFP (FIG. 6C) cells were pre-treated with 2.5 μM/L, compound YW-1842 for 6 h or TRDMT1 siRNA for 48 h, or DMSO. Then the cells were transfected with NLS-I-SceI plasmid to induce DSB. The efficiency of HR (FIG. 6B) or NHEJ (FIG. 6C) was analyzed by flow-cytometry (n=3, Mean±SD). (FIG. 6D) After seeding, MCF-7, HCC1954, and HCC1937 cells were pre-treated with or without 2.5 μM/L compound YW-1842 for 6 h, then cultured with chemotherapy drugs (1 μM/L, Cisplatin; 1 μM/L ATRi AZ20; 10 μM/L, ATMi KU55933; 1 μM/L, PARPi Olaparib for 10 days. The survival rate of these cells was analyzed (n=3, Mean±SD). (FIG. 6E) TRDMT1 KO U2OS cells were transfected with GFP-TRDMT1^WT or GFP-TRDMT1^G155V with or without 2.5 μM/L, compound YW-1842, the survival rate of these cells after IR or Cisplatin was shown (n=3, Mean±SD).
# The Olympus FV1000 confocal microscopy system (Cat. F10PRDMYR-1, Olympus) and FV1000 software were used for the acquisition of images. Cells were cultured in 35 mm glass-bottom dishes (MatTek, P35GC-1.5-14-C) before observation. Activation of KR in bulky cells was completed by exposing cells to a 15 W Sylvania cool white fluorescent bulb for 25 min in a stage UVP (Uvland, CA). The intensity was measured by ImageJ 1.52i software.
# For m^5C staining using the heat method, the cells or tissues were fixed and permeabilized in a 35 mm glass-bottom dish using a standard protocol, incubated in buffer (10 mM Tris-HCl, 2 mM EDTA, pH=9) and steamed on a 95° C. heating block for 20 min to expose the antigen. The dish was cooled, washed 3 times with PBS and blocked using 5% BSA in 0.1% PBST for 0.5 h at room temperature. Primary antibody for m^5C (33D3, ab10805, Abcam) and secondary antibody were diluted in the same buffer (5% BSA in 0.1% PBST) and followed the standard IF protocol. […]
# U2OS or MCF7 cells = experiment: Cell survival of U2OS or MCF7 cells treated with YW-1842 alone
# Experimental: (§2) FIGS. 6F-6G show TRDMT1 inhibitor YW-1842 delays the repair of DSBs at the transcribed genome. (FIG. 6F) U2OS or MCF7 cells were treated with or without compound YW-1842 at the indicated concentration. The survival rate of these cells was shown (n=3, Mean±SD). (FIG. 6G) SCE WT cells were transfected with TA-KR and were cultured with 2.5 μM YW-1842 or not for 6 hours, γ-H2AX (n=3, 50 cells per replicated, Mean±SD) were stained and quantified.
# Approximately 500 U2OS/TRDMT1 KO U2OS/MCF-7/HCC1954/HCC1937 cells and TRDMT1 siRNA or GFP-TRDMT1 WT/G155V/K251R transfected cells were seeded in 6 cm dish with or without TRDMT1 inhibitors (2.5 μM/L). 6 hrs after seeding, cells were exposed to cisplatin (1134357, Sigma, 1 μM/L), ATMi (KU55933, C9867, Sigma, 10 μM/L), ATRi (AZ20, S7050, Selleck, 1 μM/L) or PARPi (Olaparib, AZD2461, Sigma, 1 μM/L) at indicated concentration or ionizing radiation (IR). After 7-14 days, colonies were fixed and stained with 0.3% crystal violet in methanol, and the number of colonies was counted manually.
# γ-H2AX foci = γ-H2AX foci clearance after damage; details: 2.5 μM/L YW-1842
# Experimental: as §2
# Cells for immunofluorescence observation were fixed in 4% PFA (Affymetrix, 19943 1 LT) at room temperature for 15 min and further treated with 0.2% triton for 10 min. They were then blocked by 3% BSA (SIGMA, A-7030) at room temperature for 1 h. Primary antibody for RAD51 (ab63801, Abcam, 1:200)), RAD52 (sc-365341, Santa Cruz, CA, USA, 1:500), TRIM28 (ab10484, Abcam, 1:500), γH2AX ser139 (JBW301, 05-636, EMD Millipore, 1:200), were incubated with cells at 4° C. overnight. After washing with 0.05% PBS-Tween (PBST), the cells were incubated with secondary antibody for 1 h at room temperature.
# U2OS (DR-GFP) cells = experiment: DR-GFP HR reporter assay; details: 2.5 μM/L for 6 h, in comparison with DMSO treated group
# Experimental: as §1
# Using a previously described method[Lan, L. et al. The ACF1 complex is required for DNA double-strand break repair in human cells. […] The GFP signal arising from the recombination (HR) or non-homologous end joining (NHEJ) events were measured by flow cytometry.
# TRDMT1 KO U2OS cells = experiment: Cell survival after IR or Cisplatin in TRDMT1 KO U2OS cells with or without YW-1842; details: 2.5 μM/L
# Experimental: as §1
# Approximately 500 U2OS/TRDMT1 KO U2OS/MCF-7/HCC1954/HCC1937 cells and TRDMT1 siRNA or GFP-TRDMT1 WT/G155V/K251R transfected cells were seeded in 6 cm dish with or without TRDMT1 inhibitors (2.5 μM/L). […]
smiles,measurement,setting,value
"COc1cc2nc(-n3cc(-c4ccc(S(C)(=O)=O)cc4)cn3)nc(-c3ccsc3)c2cc1OC [YW-1842, 6,7-dimethoxy-2-(4-(4-(methylsulfonyl)phenyl)-1H-pyrazol-1-yl)-4-(thiophen-3-yl)quinazoline]",TRDMT1 inhibition (overall statement),TRDMT1,potent inhibitor for TRDMT1; also recorded: high inhibitory activity
same,"inhibiting TRDMT1 recruitment, m^5C formation and HR efficiency at DNA damage sites",TRDMT1,performed well
same,m^5C inhibitory activity,"TRDMT1; 2.5 μM/L, 6 hours, cells transfected with TA-KR",almost equivalent to TRDMT1 depletion
same,cell killing by compound alone,U2OS or MCF7 cells; 2.5 μM/L,does not kill cells alone
same,antiproliferative effect (cell proliferation),U2OS or MCF7 cells; concentration below 5 μM/L,did not prohibit cell proliferation
same,DNA repair efficiency (clearance of γ-H2AX foci after IR),γ-H2AX foci,delayed clearance of γ-H2AX foci
same,HR-mediated repair of I-SceI-generated DSBs,U2OS (DR-GFP) cells,diminished the repair of I-SceI-generated DSBs
same,sensitization of TRDMT1 KO cells to IR or Cisplatin,TRDMT1 KO U2OS cells,does not sensitize TRDMT1 KO

# — US12496302B2, “Compositions and methods for the treatment and diagnosis of cancer” (The General Hospital Corporation, priority 2020, dated 2025)
